# Assay results reported in ChEMBL document CHEMBL1201862, “PubChem BioAssay data set” (2004).
# Activity calls are given as the source filed them.
# Tests used:
# [1] = target: Beta-galactosidase (Escherichia coli, UniProt Q8VNN2); assay: beta-galactosidase enzyme inhibitors and activators, dose response, artefact control for CCR6 antagonist project, biochemical, E. coli enzyme, set 3 (AID 504712); assay type: functional
# [2] = target: T1, Rac GTPase-activating protein 1 (Homo sapiens, UniProt Q9H0H5); assay: MgcRacGAP GTPase-activating activity inhibitors, confirmation, biochemical, ADP Hunter fluorescence, primary and confirmatory (AID 624330); assay type: functional
# T1 sequence (Q9H0H5 whole entry): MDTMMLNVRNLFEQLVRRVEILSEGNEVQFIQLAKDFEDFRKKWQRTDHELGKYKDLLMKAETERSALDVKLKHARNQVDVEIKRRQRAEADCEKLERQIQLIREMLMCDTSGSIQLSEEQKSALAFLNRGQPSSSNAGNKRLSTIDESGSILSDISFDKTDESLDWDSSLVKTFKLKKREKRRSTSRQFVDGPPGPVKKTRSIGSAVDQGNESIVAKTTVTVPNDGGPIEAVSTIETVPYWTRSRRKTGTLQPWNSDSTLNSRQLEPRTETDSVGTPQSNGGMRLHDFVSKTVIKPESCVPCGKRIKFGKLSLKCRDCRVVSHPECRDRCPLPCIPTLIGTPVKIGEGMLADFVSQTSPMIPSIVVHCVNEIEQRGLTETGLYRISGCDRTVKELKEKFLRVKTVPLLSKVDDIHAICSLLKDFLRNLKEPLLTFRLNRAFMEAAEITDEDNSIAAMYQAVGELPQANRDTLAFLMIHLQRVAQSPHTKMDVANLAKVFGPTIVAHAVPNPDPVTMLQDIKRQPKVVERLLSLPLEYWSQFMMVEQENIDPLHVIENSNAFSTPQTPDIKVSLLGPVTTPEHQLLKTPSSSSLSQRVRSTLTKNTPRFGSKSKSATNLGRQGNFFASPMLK
# [3] = target: T2, Histone-lysine N-methyltransferase NSD2 (Homo sapiens, UniProt O96028); assay type: biochemical
# T2 sequence (O96028 whole entry): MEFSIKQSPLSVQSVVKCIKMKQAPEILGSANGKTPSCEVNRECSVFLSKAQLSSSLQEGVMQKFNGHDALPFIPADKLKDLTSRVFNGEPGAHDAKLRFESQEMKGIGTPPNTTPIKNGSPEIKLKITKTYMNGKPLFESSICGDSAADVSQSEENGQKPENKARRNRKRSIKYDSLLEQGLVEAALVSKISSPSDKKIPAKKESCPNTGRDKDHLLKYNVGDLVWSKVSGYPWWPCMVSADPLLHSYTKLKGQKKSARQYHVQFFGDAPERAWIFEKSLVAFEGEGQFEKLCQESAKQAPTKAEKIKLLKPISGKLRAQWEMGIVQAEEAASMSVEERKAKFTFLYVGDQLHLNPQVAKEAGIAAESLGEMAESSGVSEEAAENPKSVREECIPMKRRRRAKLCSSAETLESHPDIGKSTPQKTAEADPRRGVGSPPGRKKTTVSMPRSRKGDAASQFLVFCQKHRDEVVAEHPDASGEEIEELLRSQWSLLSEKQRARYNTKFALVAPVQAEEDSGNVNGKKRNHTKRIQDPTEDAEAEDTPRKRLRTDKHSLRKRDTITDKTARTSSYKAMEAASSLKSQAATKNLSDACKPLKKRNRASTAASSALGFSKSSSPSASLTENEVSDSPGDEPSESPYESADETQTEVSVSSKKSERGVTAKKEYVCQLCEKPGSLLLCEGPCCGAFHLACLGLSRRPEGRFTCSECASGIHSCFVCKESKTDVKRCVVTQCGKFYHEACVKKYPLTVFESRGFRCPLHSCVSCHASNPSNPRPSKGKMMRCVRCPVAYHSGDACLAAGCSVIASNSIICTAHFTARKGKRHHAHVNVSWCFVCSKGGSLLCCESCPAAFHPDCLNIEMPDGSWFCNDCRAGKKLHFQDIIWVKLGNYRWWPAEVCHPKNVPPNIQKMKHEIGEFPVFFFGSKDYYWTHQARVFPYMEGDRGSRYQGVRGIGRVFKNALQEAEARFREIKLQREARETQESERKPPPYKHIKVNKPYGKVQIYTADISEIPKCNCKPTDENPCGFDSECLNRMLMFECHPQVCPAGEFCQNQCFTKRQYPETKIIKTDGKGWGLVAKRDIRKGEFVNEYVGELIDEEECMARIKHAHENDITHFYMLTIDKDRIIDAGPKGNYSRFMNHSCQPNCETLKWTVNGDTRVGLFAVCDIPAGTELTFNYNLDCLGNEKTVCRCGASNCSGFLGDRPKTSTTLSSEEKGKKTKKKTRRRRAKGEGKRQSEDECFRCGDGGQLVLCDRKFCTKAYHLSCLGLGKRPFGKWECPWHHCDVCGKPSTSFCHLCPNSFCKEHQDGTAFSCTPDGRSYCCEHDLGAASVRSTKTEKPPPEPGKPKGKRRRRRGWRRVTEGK
# Chain of Beta-galactosidase (Q8VNN2 whole entry): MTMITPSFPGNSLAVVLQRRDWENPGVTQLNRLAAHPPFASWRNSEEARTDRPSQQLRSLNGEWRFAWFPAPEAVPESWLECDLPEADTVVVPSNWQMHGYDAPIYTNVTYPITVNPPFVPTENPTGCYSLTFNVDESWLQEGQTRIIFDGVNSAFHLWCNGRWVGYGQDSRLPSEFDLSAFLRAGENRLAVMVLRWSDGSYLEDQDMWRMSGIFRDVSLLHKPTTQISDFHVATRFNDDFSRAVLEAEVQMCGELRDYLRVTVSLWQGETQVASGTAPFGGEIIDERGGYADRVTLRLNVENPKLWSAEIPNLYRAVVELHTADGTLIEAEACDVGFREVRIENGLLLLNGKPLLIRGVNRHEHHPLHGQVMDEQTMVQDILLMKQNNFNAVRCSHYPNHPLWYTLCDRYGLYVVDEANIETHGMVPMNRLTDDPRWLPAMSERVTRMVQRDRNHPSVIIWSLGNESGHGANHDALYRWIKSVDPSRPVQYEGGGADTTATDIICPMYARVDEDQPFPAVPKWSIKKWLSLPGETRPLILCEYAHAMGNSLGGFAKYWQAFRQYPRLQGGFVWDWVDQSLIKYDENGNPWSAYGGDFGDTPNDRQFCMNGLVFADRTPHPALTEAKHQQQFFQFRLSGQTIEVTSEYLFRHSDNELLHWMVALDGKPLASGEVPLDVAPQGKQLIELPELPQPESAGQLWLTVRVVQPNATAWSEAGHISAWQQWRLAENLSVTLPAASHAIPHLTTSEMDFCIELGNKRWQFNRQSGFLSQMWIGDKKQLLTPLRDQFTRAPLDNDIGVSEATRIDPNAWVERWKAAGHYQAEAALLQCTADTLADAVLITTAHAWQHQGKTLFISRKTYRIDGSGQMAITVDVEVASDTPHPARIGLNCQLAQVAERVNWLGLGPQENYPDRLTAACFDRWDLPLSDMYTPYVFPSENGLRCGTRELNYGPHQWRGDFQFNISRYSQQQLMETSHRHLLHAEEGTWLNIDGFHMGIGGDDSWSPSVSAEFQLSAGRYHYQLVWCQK
SMILES,IC50 [1],IC50 [2],AC50 [3]
COc1ccc(S(=O)(=O)/N=C2\C=C(Nc3ccc(O)cc3)C(=O)c3ccccc32)cc1,43 µM (inactive),50.7 µM (active),–
COc1ccc(/C=N/Nc2cc(N3CCCC3)nc(N3CCCC3)n2)cc1,–,–,2.01 µM (active)
